Laboratory results: US20190337971A1, “PANTETHEINE DERIVATIVES FOR THE TREATMENT OF NEUROLOGIC DISORDERS” (Retrophin, Inc., priority 2016, published 2019)
Where two headings read alike, the source gives them in different places.

Experiments:
[1] = tested on: PANK2−/− IMR32 cells; test: Coenzyme A assay in PANK2 silenced cells (LC-MS quantification of free CoA); format: cell-based, human; conditions: Homo sapiens, IMR-32; compound concentration 50 uM; fold increase in CoA levels relative to controls; treated twice, 24 h + 24 h
[2] = Stability of compounds in human hepatocytes; format: in vitro ADME; conditions: cryopreserved human hepatocytes in suspension, 37° C., 0-240 min
Description: Stability in hepatocytes for select compounds disclosed in the application was evaluated in two species (mouse and human) according to the following procedure. Compounds and positive control samples were dissolved in 100% DMSO at 5 mM. Cryopreserved hepatocytes were thawed and resuspended in Hepatocyte Basal Medium (HBM-Lonza CC-3199) supplemented with CC-4182 (complete hepatocyte culture medium). Test compounds were diluted into cell suspension (1 million cells/ml) from the stock solutions to have a test compound concentration of 5 μM (0.1% DMSO). Incubation was performed in 24-well plates, at 37° C. in a DUBNOFF water bath, under low shaking. Each compound was tested at 6 time points, in duplicates (0, 15, 30, 60, 120, and 240 min). At each time point, an aliquot of 120 μl was taken and transferred to a 96-well deep plate. The reaction was stopped with the addition of one volume of 100% acetonitrile plus 0.1% formic acid and the appropriate internal standard. Samples then were centrifuged at 1100×g for 30 min at +4° C. and supernatants were transferred to a new 96-deepwell plate. Samples were evaporated under N2 and reconstituted in H2O/ACN 0.1% formic Acid (98:2). Analysis was performed without a calibration curve (Acquity UPLC-Waters; Sciex API4000). Time 0 was obtained adding acetonitrile before addition of the test compound. Stability was determined based on analysis of disappearance of the compounds as a function of incubation time. Quantification of test compounds was measured as a peak area relative to an internal standard. The elimination constant, k, is calculated by plotting mean disappearance values on a semi-logarithmic scale and fitting with a best fit linear regression. The half-life (t1/2) expressed in hours was derived using Equation 1:
t1/2=ln 2/(−k). Equation 1: […]

[3] = Diastereoisomer A (upfield shift in 31P NMR), read-out: t1/2 (h) Human Hepatocytes Diastereoisomer A (converted)
[4] = Diastereoisomer B, read-out: t1/2 (h) Human Hepatocytes Diastereoisomer B (converted)

`CC(=O)SCCNC(=O)CCNC(=O)[C@@H]1OP(=O)(OCOC(=O)c2cc(C)nn2C)OCC1(C)C` (stereo partly drawn) [R1007, (((4R)-4-((3-((2-(acetylthio)ethyl)amino)-3-oxopropyl)carbamoyl)-5,5-dimethyl-2-oxido-1,3,2-dioxaphosphinan-2-yl)oxy)methyl 1,3-dimethyl-1H-pyrazole-5-carboxylate] showed a fold induction at 50 µM [1] of 109, a half-life at 5 μM [2, 3] of 0.25 h and a half-life at 5 μM [2, 4] of 0.21 h.
Compound `CC(=O)SCCNC(=O)CCNC(=O)[C@@H]1OP(=O)(OCOC(=O)c2scnc2C)OCC1(C)C` (stereo partly drawn) [R1006, (((4R)-4-((3-((2-(acetylthio)ethyl)amino)-3-oxopropyl)carbamoyl)-5,5-dimethyl-2-oxido-1,3,2-dioxaphosphinan-2-yl)oxy)methyl 4-methylthiazole-5-carboxylate] has a fold induction at 50 µM [1] of 117, a half-life at 5 μM [2, 3] of 0.42 h and a half-life at 5 μM [2, 4] of 0.35 h.
